“Also recorded” adds a separate entry of the source. Where two headings read alike, the source gives them in different places.
Legend:
AML/MDS cells [1] = experiment: Clonogenic potential of AML/MDS cells; format: cell-based
[2] = tested on: TLR mediated NFkB activity; experiment: TLR mediated NFkB activity; format: cell-based; conditions: for TLR mediated NFkB signaling: AML cells
[3] = tested on: NFkB and interferon signaling in AML/MDS cells; experiment: NFkB and interferon signaling in AML/MDS cells; format: cell-based; conditions: for NFkB signaling: AML cells
UBE2N active site mutant = experiment: Inhibition of NFkB with UBE2N active site mutant; format: cell-based
AML/MDS cells [4] = experiment: Proliferation of AML/MDS cells; format: cell-based
AML cells = experiment: Viability of AML cells; format: cell-based
DDB1 = DDB1 ubiquitination following UBE2N inhibition; format: cell-based; conditions: following inhibition of UBE2N
Source text: (§1) To identify the molecular basis of UBE2N inhibition, Applicant performed a global ubiquitin screen for changes in ubiquitinated substrates and gene expression profiling by RNA sequencing. For the ubiquitin screen, K63 ubiquinated proteins were immunopreciptated from MDSL cells upon pharmacologic inhibition of UBE2N, followed by mass spectrometry analysis.
(§2) One substrate identified in NSC697923-treated MDSL cells by the ubiquitin screen is DDB1, a component of the CUL4-CRBN E3 ligase complex targeted by Lenalidomide (LEN). […] LEN has shown encouraging results in del(5q) MDS patients (“deletion 5q (del 5q) MDS” in which part of chromosome 5 is missing), but its effects are limited in other cytogenetic subtypes of MDS or AML. Therefore, the identification of molecular targets that can enhance or extend the use of LEN in a broader spectrum of patients is desired Applicant explored the possibility of a cooperative effect of LEN and NSC697923 on MDS/AML cells. […] As such, UBE2N is a promising target for extending the use of LEN to other subtypes of MDS/AML.

UBE2N [5] = target: T1, UBE2N (Homo sapiens, UniProt P61088); experiment: Direct binding to UBE2N (Michael-Addition reaction); conditions: through a Michael-Addition reaction
T1 construct: endogenous in cells
T1 sequence (P61088 1-152): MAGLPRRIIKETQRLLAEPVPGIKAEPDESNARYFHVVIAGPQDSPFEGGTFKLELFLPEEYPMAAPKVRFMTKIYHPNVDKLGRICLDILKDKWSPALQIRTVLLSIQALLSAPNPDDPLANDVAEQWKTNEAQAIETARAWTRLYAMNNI

UBE2N [6] = target: T1, UBE2N; experiment: UBE2N ubiquitination at Lysine (K)-92
MOLM-13 and THP-1 cells = experiment: DNA damage in MOLM-13 and THP-1 cells; format: cell-based
[7] = tested on: MDS/AML cell lines and patient samples; experiment: Combination with lenalidomide on MDS/AML cell lines and patient samples in vitro; format: cell-based; conditions: MDS/AML cells
Source text: as §2

normal CD34+ cells = experiment: Function of normal CD34+ cells in the presence of lenalidomide; format: cell-based
MDS/AML cells [8] = experiment: Cellular metabolic activity of MDS/AML cells; format: cell-based
MDSL cells [9] = experiment: RNA sequencing / expression in MDSL cells; format: cell-based
Source text: as §1

normal HSPC = experiment: Clonogenic capacity of normal HSPC; format: cell-based
AML/MDS cells [10] = experiment: Cell death of AML/MDS cells; format: cell-based
MDSL cells [11] = experiment: Global ubiquitin screen in MDSL cells; format: cell-based
Source text: as §1

AML/MDS cells [12] = experiment: Cell cycle of AML/MDS cells; format: cell-based
AML/MDS cells [13] = experiment: DNA damage in AML/MDS cells; format: cell-based
TRAF6 = TRAF6 protein expression; format: cell-based; conditions: rescued by inhibition of the proteasome
primary MDS stem cells = experiment: Clonogenic potential of primary MDS stem cells; format: cell-based
MDS/AML cells [14] = experiment: Targeting MDS/AML cells in vivo

direct binding to UBE2N (UBE2N [5])	Compound	clonogenic potential (AML/MDS cells [1]; AML cells)	TLR mediated NFkB signaling [2]	NFkB signaling [3]	sensitivity of UBE2N active site mutant to inhibition of NFkB (UBE2N active site mutant)	proliferation (AML/MDS cells [4]; AML cells)	viability (AML cells)	DDB1 ubiquination (DDB1)	UBE2N ubiquination at Lysine (K)-92 (UBE2N [6])	DNA damage (MOLM-13 and THP-1 cells)	further results
directly bind UBE2N	Cc1ccc(S(=O)(=O)/C=C/C#N)cc1 [UC64]	reduces their clonogenic potential	inhibits TLR mediated NFkB signaling	inhibits NFkB signaling	less sensitive	reduces their proliferation	reduces their viability	differentially ubiquinated	reduces UBE2N ubiquination at Lysine (K)-92	does not cause DNA damage	–
–	Nc1cccc2c1CN(C1CCC(=O)NC1=O)C2=O (stereo not shown) [lenalidomide]	–	–	–	–	–	–	–	–	–	cytotoxic effects of lenalidomide with UBE2N inhibition [7]: enhances the cytotoxic effects; function of normal CD34+ cells with UBE2N inhibition in the presence of lenalidomide (normal CD34+ cells): does not affect the function of normal CD34+ cells
–	Cc1ccc(S(=O)(=O)c2ccc([N+](=O)[O-])o2)cc1 [NSC697923]	–	–	–	–	–	–	–	–	–	cellular metabolic activity (MDS/AML cells [8]): reduced the cellular metabolic activity; clonogenic potential (AML/MDS cells [1]; AML/MDS cells): reduces proliferation and clonogenic potential; clonogenic capacity (AML/MDS cells [1]; MDSL/AML cell lines and primary cells): reduced the clonogenic capacity; TLR mediated NFkB activity [2]: inhibits TLR mediated NFkB activity; expression of APC/CDC20 substrates (i.e., cyclin B1) (MDSL cells [9]): increased expression of APC/CDC20 substrates; gene expression changes by RNA sequencing (MDSL cells [9]; MDSL cells): expression changes in genes involved in mRNA processing, cell cycle, and glycolysis; NFkB and interferon signaling ([3]; AML/MDS cells, listed as NSC23): inhibits NKkB and interferon signaling; also recorded: inhibits NFkB and interferon signaling; effect on normal HSPC (clonogenic capacity) (normal HSPC): not significantly affecting normal HSPC; proliferation (AML/MDS cells [4]; AML/MDS cells): reduces proliferation; cell death (AML/MDS cells [10]): increased cell death; cell death (AML/MDS cells [10]; listed as NSC23): cell death; protein ubiquination (MDSL cells [11]): Differential protein ubiquination; cell cycle arrest (AML/MDS cells [12]): induced a G2/M cell cycle arrest; cell cycle arrest (AML/MDS cells [12]; listed as NSC23): induces cell cycle arrest in mitosis; DNA damage (AML/MDS cells [13]): induces DNA damage; TRAF6 protein expression (TRAF6): dramatic loss of TRAF6 protein expression
directly bind UBE2N	Cc1ccc(S(=O)(=O)c2ccc([N+](=O)[O-])o2)cc1 [UC65]	reduces their clonogenic potential	inhibits TLR mediated NFkB signaling	inhibits NFkB signaling	less sensitive	reduces their proliferation	reduces their viability	differentially ubiquinated	reduces UBE2N ubiquination at Lysine (K)-92	does not cause DNA damage	clonogenic potential (primary MDS stem cells): reduces their clonogenic potential; effectiveness against MDS/AML cells in vivo (MDS/AML cells [14]): effective against targeting MDS/AML cells in vivo
